Reference: PMC5359555, “Mechanistic and structural basis of bioengineered bovine Cathelicidin-5 with optimized therapeutic activity” (Scientific Reports, 2017)
Where a SMILES comes first, the peptide text is derived from it.

Columns and labels:
B16-F1 melanoma tumor = assay: In vivo B16-F1 melanoma mouse model; conditions: C57BL/6 mice n = 6, subcutaneous
Method: The C57BL/6 mice (8 weeks old male) were generated and maintained in a pathogen-free environment as described elsewhere. All animal experiments were carried out under approval from the Animal Research Committee of the Research Institute for Microbial Diseases (Osaka University, Osaka, Japan). All experiments were performed in accordance with relevant guidelines and regulations of Osaka University, Japan. The stromal cell-free osteoclast culture was performed using M-CSF-derived macrophage (MDMs) precursors. The bone marrow cells were flushed from femurs or tibias and cultured for 6 h in α-MEM supplemented with 10% FCS. The non-adherent cells were collected and plated in a 96-well plate at a density of 2 × 10^3 cells/well with 25 ng/ml M-CSF (PeproTech, Rocky Hill, NJ). The cell cultures were rinsed with PBS after 3 days incubation, and the adherent cells were used as MDMs. […] After 4 days, TRAP staining was performed and TRAP positive multinucleated cell numbers (>3 nuclei) were counted.
Healthy C57BL/6 mice (n = 6) were administered with 30 μM Syn1 peptide mixed with 1 × 10^6 B16-F1 melanoma cells in 0.1 ml of saline via subcutaneous injections. […] The growth size of tumors were monitored in every two days and the tumor volume was measured by a dial-caliper on day 14 and 20 using the formula volume = width^2 × length × 0.52.

E. coli BL21 strain = assay: Transmission electron microscopy, E. coli BL21; format: cell-based, Escherichia coli BL21; conditions: E. coli BL21, 2 μM, 1 hour 37 °C
Method: (§1) E. coli DH5α and BL21 strains were subjected to TEM analysis. E. coli strains were cultured at 37°C in LB broth to mid-log phase and harvested by centrifugation at 5000 g for 5 minutes. The cell pellets were re-suspended in fresh LB media with an OD600 = 0.18. A peptide (Syn1) solution at a concentration of 2 μM (MIC) was added to E. coli DH5α and BL21 strains and the samples were incubated at 37°C for 1 hour. The culture was centrifuged at 5000 g for 5 minutes and the cell pellets were collected. The cell pellets were washed twice and re-suspended in 1 mL fixation buffer that contains 2% formaldehyde, 2.5% glutaryldehide in 0.1 M phosphate buffer (pH = 7.4). The fixed bacterial cells were observed under the microscope, JEM-1011 (JEOL, Tokyo, Japan).

E. coli BL21 cells = assay: Flow cytometry propidium iodide influx, E. coli BL21; format: cell-based, Escherichia coli BL21; conditions: E. coli BL21, at peptide MIC; 30 min peptide, 10 μg ml^−1 PI
Method: The effect of peptides on the cell-membrane integrity of E. coli BL21 and DH5α and lymphoma cells was studied using the flow cytometer analysis as described elsewhere. The cells were cultured and washed three times using PBS buffer and incubated for 30 minutes with peptides at different concentration. The incubated lymphoma cells were further processed referring to the annexin V-FITC apoptosis kit. Peptide treated and untreated cells (E. coli/lymphoma) were stained with 10 μg ml^−1 propidium iodide (PI) and incubated for additional 30 min. The incubated cells were washed using PBS to remove unbound dye and flow cytometry analysis was carried out using the FACSCalibur and analyzed by CellQuest Pro Version 5.2.1 software (BD Biosciences, NJ, USA).

RBCs = assay: Hemolytic assay (hemoglobin release); format: cell-based; conditions: 30 μM; RBCs hematocrit ~5%, 1 h 37 °C, absorbance 540 nm, 100% = 2% Triton X-100
Method: Plasmodium falciparum strain 3D7 was cultured in RPMI-1640 supplemented with 25 mg/l L-Glutamine; HEPES, NaHCO3; 50 mg/l Hypoxanthin; Gentamicien; 10% human serum; and RBCs at 3% hematocrit in an atmosphere of 5% CO2, 5% O2, and 90% N2 at 37°C as previously described. The Plasmodium lactate dehydrogenase (pLDH) assay was performed to measure the parasitic growth inhibition as described elsewhere[49] with BMAP-28 and its analogues treatment. In brief, malstat reagent was added to a 96-well plate (100 μL in each well). A Plasmodium infected RBC mixture of 20 μL in each well was mixed thoroughly using a plate shaker. And then 10 μL of each 1 mg/ml diaphorase and Nitroblue tetrozolium (NBT) were added to each well. The solution in the 96-well plate was mixed properly until a brown color appears and the absorbance was measured at 650 nm under a plate reader (PowerWaveHT, BioTek Instruments, USA). The hemolytic assay was carried out as described earlier. Briefly, RBCs prepared from fresh blood (Hematocrit ~5%) were incubated for 1 h at 37 °C after addition of test peptides. Relative hemoglobin concentration in supernatants after centrifugation at 2000× g for 5 min was monitored by measuring the absorbance at 540 nm by the plate reader (PowerWaveHT, BioTek Instruments, USA). As positive control, 100% hemolysis was taken from samples in which 2% Triton X-100 was added.

[1] = tested on: osteoclasts (RANKL-induced from MDMs); assay: RANKL-induced osteoclastogenesis; format: cell-based, mouse; conditions: 50 ng/ml RANKL plus M-CSF, TRAP staining after 4 days
Method: The C57BL/6 mice (8 weeks old male) were generated and maintained in a pathogen-free environment as described elsewhere. All animal experiments were carried out under approval from the Animal Research Committee of the Research Institute for Microbial Diseases (Osaka University, Osaka, Japan). All experiments were performed in accordance with relevant guidelines and regulations of Osaka University, Japan. The stromal cell-free osteoclast culture was performed using M-CSF-derived macrophage (MDMs) precursors. The bone marrow cells were flushed from femurs or tibias and cultured for 6 h in α-MEM supplemented with 10% FCS. The non-adherent cells were collected and plated in a 96-well plate at a density of 2 × 10^3 cells/well with 25 ng/ml M-CSF (PeproTech, Rocky Hill, NJ). The cell cultures were rinsed with PBS after 3 days incubation, and the adherent cells were used as MDMs. The MDMs were induced to differentiate into osteoclasts in the presence of 50 ng/ml RANKL plus M-CSF. The cells were treated with different peptide concentration to investigate the effect of peptides on the osteoclastogenesis process. After 4 days, TRAP staining was performed and TRAP positive multinucleated cell numbers (>3 nuclei) were counted.

E. coli DH5α strain = assay: Transmission electron microscopy, E. coli DH5α; format: cell-based, Escherichia coli DH5α; conditions: 4 μM
Method: as §1, with “A peptide (Syn1) solution at a concentration of 2 μM (MIC) was added to E. coli DH5α and BL21 strains and the samples were incubated at 37°C for 1 hour.” left out

B16-F1 melanoma cells = assay: MTT cell-viability assay, B16-F1 melanoma; format: cell-based, mouse
Method: The T-cell lymphoma (Jurkat) and B-cell lymphoma (Ramos) were cultured using RPMI-1640 medium supplemented with 10% fetal calf serum (FCS), 100 U ml^−1 penicillin and 100 μg ml^−1 streptomycin. An initial cell densities of 5 × 10^3 cells/well was uniformly maintained in a 96 well plate. The B16-F1 melanoma cells were grown in DMEM medium containing 10% FCS, 100 U ml^−1 penicillin and 100 μg ml^−1 streptomycin and 55 μM 2-mercaptoethanol. The cells were trypsinized and plated in a 96-well plate at a density of 5 × 10^3 cells/well. The cells were grown overnight at 37 °C using a 5% CO2 incubator. The cells were treated with different peptide concentration followed by cell proliferation assay. The MTT assay kit (Cayman chemicals, USA) was used to measure the cell viability at a peptide concentration varying from 2 to 15 μM (in triplicate). Fresh culture medium and cells in medium without peptide were considered as negative and positive controls for viability assay and was monitored at 24, 48 and 72 h. The Cayman MTT cell proliferation assay protocol was followed, and the absorbance were recorded at 570 nm using a microplate reader (PowerWaveHT, BioTek Instruments, USA).

With `CC[C@H](C)[C@H](NC(=O)[C@H](CCCCN)NC(=O)[C@H](CCCNC(=N)N)NC(=O)CNC(=O)[C@H](Cc1ccccc1)NC(=O)[C@H](CO)NC(=O)[C@H](CCCNC(=N)N)NC(=O)[C@H](Cc1ccccc1)NC(=O)CNC(=O)CN)C(=O)N[C@@H](Cc1ccccc1)C(=O)N[C@@H](CCCNC(=N)N)C(=O)N[C@@H](C)C(=O)N[C@@H](Cc1c[nH]c2ccccc12)C(=O)N[C@@H](CCCCN)C(=O)N[C@@H](CCCCN)C(=O)N[C@@H](Cc1ccc(O)cc1)C(=O)NCC(N)=O` [Syn1] (H-GGFRSFGRKIFRAWKKYG-NH2; N-terminus assumed) the “tumor formation (in words)” value (B16-F1 melanoma tumor; 30 μM Syn1 mixed with 1 × 10^6 B16-F1 cells in 0.1 ml saline, day 14 and 20) was “no tumor formation”, the “survival (in words)” value (B16-F1 melanoma tumor; 30 μM Syn1 mixed with 1 × 10^6 B16-F1 cells) was “alive” and the “TEM observation (in words)” value (E. coli BL21 strain) was “membrane disruption and cell lysis”. For the same compound, the PI influx (E. coli BL21 cells) was ~ 100%, the “Hemoglobin release (%) / hemolysis” value (RBCs) was 7.2% and the “activity in RANKL-induced osteoclastogenesis (in words)” value ([1]; 3 μM) was “significant activity”. The “activity in RANKL-induced osteoclastogenesis (in words)” value ([1]; 10 μM) was “complete abolition”, the “TEM: membrane abnormalities or disruption (in words)” value (E. coli DH5α strain) was “not observed” and the “concentration found to be active” value (B16-F1 melanoma cells) was ~ 30 μM. For the same compound, the “anticancer activity (in words)” value (B16-F1 melanoma cells; 10 μM) was “fairly low anticancer activity”.
